How the values were obtained:
CK2α = target: T1, CK2α (Homo sapiens, UniProt P68400); assay: Biochemical assay for inhibitors of CK2α kinase activity (ADP-Glo); conditions: 0.2 nM CK2α, 50 μM peptide substrate, 15 μM ATP, read-out: Assay 1: CK2α Enzyme IC50
T1 construct: CK2α (residues 2-329) was produced in Escherichia coli BL21 (DE3) for kinase activity screening; His6 (N, cleaved yes); made in house; host or cells: Escherichia coli BL21 (DE3)
T1 sequence (P68400 2-329): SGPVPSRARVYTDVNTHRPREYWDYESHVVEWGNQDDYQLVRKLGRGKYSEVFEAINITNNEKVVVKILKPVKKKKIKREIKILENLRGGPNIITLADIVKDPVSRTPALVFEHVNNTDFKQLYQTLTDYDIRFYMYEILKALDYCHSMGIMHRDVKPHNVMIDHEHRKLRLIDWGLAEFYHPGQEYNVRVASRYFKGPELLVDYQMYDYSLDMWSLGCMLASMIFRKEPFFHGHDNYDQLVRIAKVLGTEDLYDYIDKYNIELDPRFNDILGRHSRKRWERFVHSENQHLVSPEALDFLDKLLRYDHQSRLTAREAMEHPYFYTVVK
Procedure: The inhibitory activity of putative kinase inhibitors and the potency of selected compounds were determined using ADP-Glo™ assay. The kinase reaction was performed in the presence of excess peptide substrate and ATP at a concentration equivalent to Km. Upon termination of the kinase reaction, remaining ATP was depleted leaving only ADP reaction product, which was converted back to ATP with a coupled luciferin/luciferase reaction. The luminescent output from the coupled reaction was quantified and correlated with the kinase activity. […] Single colonies of the cells were grown in 6×1 L of 2×TY with 100 μg/mL ampicillin at 37° C. […] The cells were incubated overnight at 25° C. then harvested by centrifugation at 4,000 g for 20 minutes. The cell pellets were suspended in 20 mM Tris, 500 mM NaCl, pH 8.0 and lysed using a high pressure homogenizer. Protease inhibitor cocktail tablets (one tablet per 50 mL extract; Roche Diagnostics) and DNase I were then added. The crude cell extract was then centrifuged at 10,000 g for 45 minutes, the supernatant was filtered with a 0.22 μm filter. The soluble supernatant was applied on a Ni Sepharose Fast Flow6 column at pH 8.0, washed and eluted in 20 mM Tris pH 8.0, 500 mM NaCl, 200 mM imidazole. […] The cleaved protein was further purified on a Sepharose Q HP anion-exchange column and the main peak fraction from this column was further purified by gel filtration on a Superdex 75 16/60 HiPrep column equilibrated with Tris 20 mM, pH 8.0, 500 mM NaCl. Pure protein was concentrated to 15 mg/mL and flash frozen in liquid nitrogen. […] The assay was conducted as follows: • 1. […] After 120 minutes, the reaction was stopped by addition of 5 pl ADP-Glo reagent (Promega V9102) and the plate incubated at RT for a further 60 minutes. • 5. 10 μL of Kinase Detection reagent (Promega V9102) was added to assay plate and incubated for a further 30 minutes prior to reading luminescence on an Envision (Perkin-Elmer). Data was analysed to calculate compound IC50and Ki as follows: • 1. […] Percent activity was calculated for each well using: (Test well reading−MEAN100%inhibition control wells)/(MEAN0% inhibition control wells−MEAN100%inhibition control wells). • 5. Morrison Ki was determined using Morrison Ki equation (XL-fit).

CLK2 = target: T2, CLK2 (Homo sapiens, UniProt P49760); assay: Biochemical assay for inhibitors of CLK2 kinase activity (ADP-Glo); conditions: 20 nM CLK2, 50 μM peptide substrate, 100 μM ATP, read-out: Assay 2: CLK2 Enzyme IC50
T2 construct: purchased Carna Biosciences 04-127
Procedure: The inhibitory activity of putative kinase inhibitors and the potency of selected compounds were determined using ADP-GloTM assay. The kinase reaction was performed in the presence of excess peptide substrate and ATP at a concentration equivalent to Km. Upon termination of the kinase reaction, remaining ATP was depleted leaving only ADP reaction product, which was converted back to ATP with a coupled luciferin/luciferase reaction. The luminescent output from the coupled reaction was quantified and correlated with the kinase activity. […] The assay was conducted as follows: • 1. […] After 120 minutes, the reaction was stopped by addition of 5 pl ADP-Glo reagent (Promega V9102) and the plate incubated at RT for a further 60 minutes. • 5. 10 μL of Kinase Detection reagent (Promega V9102) was added to assay plate and incubated for a further 30 minutes prior to reading luminescence on an Envision (Perkin-Elmer). Data was analysed to calculate compound IC50and Ki as follows: • 1. […] Morrison Ki was determined using Morrison Ki equation (XL-fit).

intracellular CK2α = target: T3, intracellular CK2α (Homo sapiens, UniProt P19784); assay: Cell-based NanoBRET assay for inhibitor binding to intracellular CK2α; conditions: HCT116 cells transiently transfected with CSNK2A2-NanoLuc fusion vector; Tracer K-5; 2 h; read-out: Assay 3: NanoBRET ™ assay for binding to intracellular CK2α
T3 construct: host or cells: HCT116 (ATCC CCL-247)
Procedure: This assay used the NanoBRET™ System (Promega), an energy transfer technique designed to measure molecular proximity in living cells. The assay measured the apparent affinity of test compounds by competitive displacement of a NanoBRET™ tracer reversibly bound to a NanoLucR luciferase CK2α fusion protein in cells. A fixed concentration of tracer was added to cells expressing the desired NanoLucR-CK2α fusion protein to generate a BRET reporter complex. […] Donor emission wavelength (450 nm) and acceptor emission wavelength (610 nm or 630 nm) were measured on the Envision (Perkin-Elmer) and BRET ratio calculated for data analysis: BRET Ratio=(Acceptorsample/Donorsample)×1,000. • 7.

T3 sequence (P19784 whole entry, the tested form may be a part): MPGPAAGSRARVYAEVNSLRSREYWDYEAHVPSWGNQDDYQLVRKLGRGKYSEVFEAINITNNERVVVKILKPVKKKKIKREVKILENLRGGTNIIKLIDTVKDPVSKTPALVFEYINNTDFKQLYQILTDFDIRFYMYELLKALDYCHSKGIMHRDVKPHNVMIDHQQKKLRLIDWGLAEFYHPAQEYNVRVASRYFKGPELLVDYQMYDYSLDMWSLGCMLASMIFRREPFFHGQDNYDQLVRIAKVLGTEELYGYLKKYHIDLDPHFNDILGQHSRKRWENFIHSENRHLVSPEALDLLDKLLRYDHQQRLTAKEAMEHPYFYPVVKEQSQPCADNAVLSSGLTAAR
T2 sequence (P49760 whole entry): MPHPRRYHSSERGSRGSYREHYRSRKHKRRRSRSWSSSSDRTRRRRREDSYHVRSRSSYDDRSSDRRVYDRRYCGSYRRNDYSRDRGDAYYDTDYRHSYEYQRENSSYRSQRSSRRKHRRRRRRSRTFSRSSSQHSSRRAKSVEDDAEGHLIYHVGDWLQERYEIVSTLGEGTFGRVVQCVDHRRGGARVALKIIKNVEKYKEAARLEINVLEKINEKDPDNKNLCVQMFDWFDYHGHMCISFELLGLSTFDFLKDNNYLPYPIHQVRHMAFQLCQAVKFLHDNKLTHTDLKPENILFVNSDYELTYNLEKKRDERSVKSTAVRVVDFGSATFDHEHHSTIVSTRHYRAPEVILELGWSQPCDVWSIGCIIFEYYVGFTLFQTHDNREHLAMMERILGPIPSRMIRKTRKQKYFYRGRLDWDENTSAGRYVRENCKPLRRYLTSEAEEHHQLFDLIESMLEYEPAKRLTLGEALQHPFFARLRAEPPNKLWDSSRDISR

Row | IC50 (CK2α) [nM] | IC50 (CLK2) [nM] | IC50 (intracellular CK2α) [nM] | SMILES
1 | 338 | 17700 | 39300 | FC(F)(F)Oc1ccc(CNCCCCOC2CN(c3cc(-c4ccnnc4)cc4[nH]nnc34)C2)cc1Cl [Example 150, N-(3-chloro-4-(trifluoromethoxy)benzyl)-4-((1-(6-(pyridazin-4-yl)-1H-benzo[d][1,2,3]triazol-4-yl)azetidin-3-yl)oxy)butan-1-amine]
2 | 0.41 | 227 | 21.4 | C[C@@H](CCCOCCNc1cc(-c2cnnc(O)c2)cc2[nH]ncc12)NCc1cc(Cc2cnco2)cc(OC(F)(F)F)c1 [Example 195, (S)-5-(4-((2-((4-((3-(oxazol-5-ylmethyl)-5-(trifluoromethoxy)benzyl)amino)pentyl)oxy)ethyl)amino)-1H-indazol-6-yl)pyridazin-3-ol]
3 | 6.96 | 132 | 449 | N#Cc1cc(NCCCNC(=O)CCNCc2ccc(-c3ccccc3)c(Cl)c2)c2cn[nH]c2c1 [Example 10, 3-(((2-chloro-[1,1′-biphenyl]-4-yl)methyl)amino)-N-(3-((6-cyano-1H-indazol-4-yl)amino)propyl)propanamide]
4 | 23.5 | 158 | 3300 | CN(CCCNc1cc(-n2cnnc2)cc2[nH]ncc12)C(=O)CCNCc1ccc(OC(F)(F)F)c(Cl)c1 [Example 20, N-(3-((6-(4H-1,2,4-triazol-4-yl)-1H-indazol-4-yl)amino)propyl)-3-((3-chloro-4-(trifluoromethoxy)benzyl)amino)-N-methylpropanamide]
5 | 10.9 | 442 | 869 | FC(F)(F)Oc1ccc(CNCCCCOC2CN(c3cc(-n4cnnc4)cc4[nH]ncc34)C2)cc1Cl [Example 132, 4-((1-(6-(4H-1,2,4-triazol-4-yl)-1H-indazol-4-yl)azetidin-3-yl)oxy)-N-(3-chloro-4-(trifluoromethoxy)benzyl)butan-1-amine]
6 | 26.5 | 129 | 10700 | N#CCc1cc(F)cc(CNCCCCOC2CN(c3cc(-n4cnnc4)cc4[nH]ncc34)C2)c1 [Example 103, 2-(3-(((4-((1-(6-(4H-1,2,4-triazol-4-yl)-1H-indazol-4-yl)azetidin-3-yl)oxy)butyl)amino)methyl)-5-fluorophenyl)acetonitrile]
7 | 0.53 | 121 | 792 | Cn1c(CNCCC(=O)NCCCNc2cc(-n3cnnc3)cc3[nH]ncc23)cc2cc(C(F)(F)F)ccc21 [Example 38, N-(3-((6-(4H-1,2,4-triazol-4-yl)-1H-indazol-4-yl)amino)propyl)-3-(((1-methyl-5-(trifluoromethyl)-1H-indol-2-yl)methyl)amino)propanamide]
8 | 0.76 | 195 | 14.9 | C[C@@H](CCCOCCNc1cc(-c2cnnc(O)c2)cc2[nH]ncc12)NCc1cc(CC#N)cc(OC(F)(F)F)c1 [Example 194, (S)-2-(3-(((5-(2-((6-(6-hydroxypyridazin-4-yl)-1H-indazol-4-yl)amino)ethoxy)pentan-2-yl)amino)methyl)-5-(trifluoromethoxy)phenyl)acetonitrile]
9 | 0.19 | 235 | 50.8 | O=C(CCNCc1ccc(-c2ccccc2)c(Cl)c1)NCCCNc1cc(-c2ccnnc2)cc2[nH]ncc12 [Example 6, 3-(((2-chloro-[1,1′-biphenyl]-4-yl)methyl)amino)-N-(3-((6-(pyridazin-4-yl)-1H-indazol-4-yl)amino)propyl)propanamide]
10 | 79.2 | 5680 | 6510 | O=C(CCNCc1ccc(OC(F)(F)F)c(Cl)c1)NCCCNc1cc(-c2ccncc2Cl)cc2[nH]ncc12 [Example 169, 3-((3-chloro-4-(trifluoromethoxy)benzyl)amino)-N-(3-((6-(3-chloropyridin-4-yl)-1H-indazol-4-yl)amino)propyl)propanamide]
11 | 23.3 | 1870 | 2120 | O=C(CCNCc1ccc(-c2ccccc2)c(Cl)c1)NCCCNc1cc(C2CCOC2)cc2[nH]ncc12 (stereo not drawn) [Example 82, 3-(((2-chloro-[1,1′-biphenyl]-4-yl)methyl)amino)-N-(3-((6-(tetrahydrofuran-3-yl)-1H-indazol-4-yl)amino)propyl)propanamide]
12 | 0.95 | 56.4 | 322 | Cc1n[nH]cc1-c1cc(NCCCNC(=O)CCNCc2ccc(-c3ccccc3)c(Cl)c2)c2cn[nH]c2c1 [Example 27, 3-(((2-chloro-[1,1′-biphenyl]-4-yl)methyl)amino)-N-(3-((6-(3-methyl-1H-pyrazol-4-yl)-1H-indazol-4-yl)amino)propyl)propanamide]
13 | 0.44 | 18.2 | 93.6 | O=C(CCNCc1ccc(-c2ccccc2)c(Cl)c1)NCCCNc1cc(-c2cn[nH]n2)cc2[nH]ncc12 [Example 25, N-(3-((6-(2H-1,2,3-triazol-4-yl)-1H-indazol-4-yl)amino)propyl)-3-(((2-chloro-[1,1′-biphenyl]-4-yl)methyl)amino)propanamid]

Row | SMILES | IC50 (CK2α) [nM] | IC50 (CLK2) [nM] | IC50 (intracellular CK2α) [nM]
14 | N#Cc1cc(NCCOCCCCNCc2cc3cc(C(F)(F)F)ccc3[nH]2)c2cn[nH]c2c1 [Example 96, 4-((2-(4-(((5-(trifluoromethyl)-1H-indol-2-yl)methyl)amino)butoxy)ethyl)amino)-1H-indazole-6-carbonitrile] | 27 | 227 | 2000
15 | FC(F)(F)c1ccc2[nH]c(CNCCCCOCCNc3cc(-c4cnoc4)cc4[nH]ncc34)cc2c1 [Example 97, 6-(isoxazol-4-yl)-N-(2-(4-(((5-(trifluoromethyl)-1H-indol-2-yl)methyl)amino)butoxy)ethyl)-1H-indazol-4-amine] | 1.42 | 104 | 321
16 | O=C(O)c1cc(NCCOCCCCNCc2cc3cc(C(F)(F)F)ccc3[nH]2)c2cn[nH]c2c1 [Example 85, 4-((2-(4-(((5-(trifluoromethyl)-1H-indol-2-yl)methyl)amino)butoxy)ethyl)amino)-1H-indazole-6-carboxylic acid] | 743 | 37100 | > 50000
17 | CNc1n[nH]c2cc(-n3cnnc3)cc(NCCOCCCCNCc3cc(F)c(OC(F)(F)F)c(F)c3)c12 [Example 190, N4-(2-(4-((3,5-difluoro-4-(trifluoromethoxy)benzyl)amino)butoxy)ethyl)-N3-methyl-6-(4H-1,2,4-triazol-4-yl)-1H-indazole-3,4-diamine] | 1.45 | 1100 | 74
